The results in this text go back to ChEMBL document CHEMBL1152971, “Cycloartane triterpenoids from Kleinhovia hospita” (J Nat Prod, 2009).

As a reminder, the EC50 is the concentration giving half of the maximal effect. The low end stands for higher potency in that assay, the high end for lower potency in that assay.

Each structure is given as a SMILES string.

The test system of this assay is HepG2. The experiment in a line: Hepatoprotective activity against nitrofurantoin-induced cytotoxicity in human HepG2 cells after 2 hrs by MTT assay. It is filed as functional, cell-based. The settings on record: HepG2, 2 h. In general terms: Formazan colour is commonly taken as a measure of viable cells.
As to `CC(C)=CC(=O)C[C@@H](C)[C@H]1CC[C@@]2(C)[C@@H]3CC[C@H]4C(C)(C)C(=O)C=C[C@@]45C[C@@]35CC[C@]12C`, it took 109 µM to reach a half-maximal effect (EC50).

`CO[C@H]1O[C@]2(C=C(C)C(=O)O2)C[C@@H]1[C@H]1CC[C@@]2(C)[C@@H]3CC[C@H]4C(C)(C)C(=O)C=C[C@@]45C[C@@]35CC[C@]12C` gave a concentration giving a half-maximal response (EC50) of 123 µM.

On to `CC(C)=CC(=O)C[C@@H](C)[C@H]1CC[C@@]2(C)[C@@H]3CC[C@H]4[C@](C)(C(=O)O)[C@@H](O)C[C@H](O)[C@@]45C[C@@]35CC[C@]12C` [GARDENOLIC ACID B], for which a half-maximal effect (EC50) was put at 66.4 µM.

On to `COc1cc(C2Oc3cc([C@H]4Oc5cc(O)cc(O)c5C(=O)[C@@H]4O)ccc3OC2CO)ccc1O` (some centres undefined) [SILIBININ], for which the EC50 was found to be 75.7 µM.
